Laboratory results published in paper PMC6170201 (Xenobiotica; the fate of foreign compounds in biological …, 2010).

Key:
[1] = test system: LS180 cells; experiment: Acetaminophen glucuronidation in intact LS180 cells; conditions: for effect on acetaminophen glucuronidation: LS180 cells; for inhibition of acetaminophen glucuronidation: initial screen, at the highest concentration tested, intact LS180 cells; for IC50: Homo sapiens, LS180, 24 h, read-out: IC50, acetaminophen glucuronidation; for fold difference in IC50, HLM versus intact LS180 cells: acetaminophen glucuronidation, more potent in LS180 cells
[2] = test system: PKC α; conditions: reported value, no reference given; cited from earlier work
[3] = test system: LS180 cells; conditions: 250 nM, substrate not clear, ref Basu et al. 2008; cited from earlier work
[4] = test system: PKC β1; conditions: reported value, no reference given; cited from earlier work
[5] = test system: PKC; conditions: 600 μM, human astrocytoma cells; ref Kurita et al. 2007; cited from earlier work
[6] = target: T1, UGT1A6 (Homo sapiens, UniProt P19224); experiment: Acetaminophen glucuronidation, treated intact UGT1A6-infected Sf9 cells
T1 sequence (P19224 27-532): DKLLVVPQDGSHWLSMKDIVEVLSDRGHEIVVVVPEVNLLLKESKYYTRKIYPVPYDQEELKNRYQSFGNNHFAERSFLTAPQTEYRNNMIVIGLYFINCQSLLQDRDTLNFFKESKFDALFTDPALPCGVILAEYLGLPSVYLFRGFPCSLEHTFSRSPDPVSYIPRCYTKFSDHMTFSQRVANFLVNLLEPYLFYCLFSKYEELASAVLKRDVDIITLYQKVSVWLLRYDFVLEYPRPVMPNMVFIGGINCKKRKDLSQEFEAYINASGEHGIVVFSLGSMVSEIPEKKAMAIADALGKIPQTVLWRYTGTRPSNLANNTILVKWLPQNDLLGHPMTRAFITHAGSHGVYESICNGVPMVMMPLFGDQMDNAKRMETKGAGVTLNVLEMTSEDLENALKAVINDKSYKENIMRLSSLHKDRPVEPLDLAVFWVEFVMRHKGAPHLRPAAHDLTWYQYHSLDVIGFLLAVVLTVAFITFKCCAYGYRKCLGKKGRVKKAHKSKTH

[7] = test system: LS180 cells; conditions: ref Basu et al. 2003; Gutmann et al. 2006; cited from earlier work
[8] = target: T1, UGT1A6; experiment: Serotonin glucuronidation, treated intact UGT1A6-infected Sf9 cells
[9] = test system: UGT1A7; conditions: UGT1A7 expressed in COS-1 cells; ref Basu et al. 2003; Basu et al. 2005; cited from earlier work
[10] = test system: UGT1A1; conditions: UGT1A1 expressed in COS-1 cells; ref Basu et al. 2003; Basu et al. 2005; cited from earlier work
[11] = target: T1, UGT1A6; experiment: Serotonin glucuronidation, UGT1A6-infected Sf9 treated cell lysates
[12] = test system: UGT1A10; conditions: UGT1A10-transfected COS-1 cells; ref Basu et al. 2008; cited from earlier work
[13] = test system: UGT1A10; conditions: UGT1A10 expressed in COS-1 cells; ref Basu et al. 2003; Basu et al. 2005; cited from earlier work
[14] = target: T1, UGT1A6; experiment: Serotonin glucuronidation by pooled human liver microsomes
[15] = test system: LS180 cell lysates; conditions: read-out: IC50, acetaminophen glucuronidation; (untreated) LS180 cell lysates
[16] = test system: human liver microsomes; experiment: Acetaminophen glucuronidation by pooled human liver microsomes; format: biochemical; conditions: read-out: IC50, acetaminophen glucuronidation; HLM, 10 mM acetaminophen
[17] = test system: HT29; conditions: HT29, 24 hr, concentrations up to 10μM; ref Tillman et al. 2003; cited from earlier work
[18] = test system: HCT8; conditions: HCT8, 24 hr, concentrations up to 10μM; ref Tillman et al. 2003; cited from earlier work
[19] = test system: SW480 colon adenocarcinoma cells; conditions: 50 μM, 12 hr treatment, ref Masur et al. 2001; cited from earlier work
[20] = test system: HCT116; conditions: HCT116, 24 hr, concentrations up to 10μM; ref Tillman et al. 2003; cited from earlier work
[21] = concentrations more than 20 times reported selective PKC IC50 values

Structure (SMILES): O=C1NC(=O)c2cc(Nc3ccc(F)cc3)c(Nc3ccc(F)cc3)cc21 [CGP-53353]
- effect on acetaminophen glucuronidation [1, 21]: did not show significant inhibitory activity
- inhibition of acetaminophen glucuronidation [1]: ≤ 50%

Structure (SMILES): CN(C)C[C@@H]1CCn2cc(c3ccccc32)C2=C(C(=O)NC2=O)c2cn(c3ccccc23)CCO1 [LY-333531, (S)-13-[(dimethylamino)methyl]-10,11,14,15-tetrahydro-4,9:16, 21-dimetheno-1H, 13H-dibenzo[e,k]pyrrolo[3,4-h][1,4,13]oxadiazacyclohexadecene-1,3(2H)-d ione]
- effect on acetaminophen glucuronidation [1, 21]: did not show significant inhibitory activity
- inhibition of acetaminophen glucuronidation [1]: ≤ 50%

Structure (SMILES): O=C1NC(=O)C(c2cn(CCCn3ccnc3)c3ccccc23)=C1Nc1ccccc1 [PKC-β inhibitor]
- effect on acetaminophen glucuronidation [1, 21]: did not show significant inhibitory activity
- inhibition of acetaminophen glucuronidation [1]: ≤ 50%

Structure (SMILES): CN(C)C[C@H]1CCn2c(c(C3=C(c4cn(C)c5ccccc45)C(=O)NC3=O)c3ccccc32)C1 [Ro 32–0432]
- inhibition of glucuronidation activity [3]: 30%
- effect on acetaminophen glucuronidation [1, 21]: did not show significant inhibitory activity
- inhibition of acetaminophen glucuronidation [1]: ≤ 50%

Structure (SMILES): CCCC(CCC)C(=O)O [Valproic acid, valproic acid]
- inhibition of PKC [5]: 40%
- effect on acetaminophen glucuronidation ([1]; 80 μM and 350 μM): not inhibitory
- inhibition of acetaminophen glucuronidation [1]: ≤ 50%

Structure (SMILES): COc1c(C[C@@H](C)OC(=O)Oc2ccc(O)cc2)c2c3c(C[C@@H](C)OC(=O)c4ccccc4)c(OC)c(=O)c4c(O)cc(OC)c(c5c(OC)cc(O)c(c1=O)c52)c43 [calphostin-C]
- IC50 [6]: 830 ± 100 nM
- fold higher IC50 in insect cells versus LS180 cells ([6]; acetaminophen glucuronidation): about 4 fold
- concentration up to which not toxic in LS180 cells [7]: up to 1 μM
- IC50 [8]: 500 ± 100 nM
- effect on glucuronidation of capsaicin [9]: inhibits
- effect on glucuronidation of anthraflavic acid [10]: inhibits
- effect on glucuronidation of bilirubin [10]: inhibits
- IC50 [11]: > 2 µM
- effect on phosphorylation of UGT1A10 [12]: dose-dependent decrease
- IC50 [1]: 0.14 ± 0.03 µM
- fold difference in IC50, HLM versus intact LS180 cells [1]: over 3.5 fold
- effect on glucuronidation of eugenol [13]: inhibits
- IC50 [14]: > 2 µM

Structure (SMILES): COc1cc(/C=C/C(=O)CC(=O)/C=C/c2ccc(O)c(OC)c2)ccc1O [curcumin, Curcumin]
- IC50 [6]: 58900 ± 4500 nM
- IC50 [8]: 64900 ± 7500 nM
- IC50 [11]: 31.6 ± 2.4 µM
- IC50 [1]: 12.1 ± 0.4 µM
- IC50 [14]: 73.9 ± 1 µM
- IC50 [15]: 60.9 ± 12.2 µM

Structure (SMILES): Cc1cc(O)c2c(=O)c3c(O)cc(O)c4c5c(O)cc(O)c6c(=O)c7c(O)cc(C)c8c1c2c(c34)c(c78)c65 [hypericin]
- IC50 [6]: 550 ± 40 nM
- fold lower IC50 in Sf9 cells compared with LS180 cells ([6]; acetaminophen glucuronidation): 10 fold
- concentration up to which not toxic in LS180 cells [7]: up to 10 μM
- IC50 [8]: 590 ± 50 nM
- IC50 [11]: > 30 µM
- IC50 [16]: > 30 µM
- IC50 [1]: 7.1 ± 0.6 µM
- fold difference in IC50, HLM versus intact LS180 cells [1]: over 3.5 fold

Structure (SMILES): CC(=O)c1c(O)c(C)c(O)c(Cc2c(O)c3c(c(C(=O)/C=C/c4ccccc4)c2O)OC(C)(C)C=C3)c1O [rottlerin]
- IC50 [6]: > 40000 nM
- IC50 [8]: > 40000 nM
- induction of apoptosis [17]: did not induce apoptosis
- induction of apoptosis [18]: did not induce apoptosis
- IC50 [11]: > 40 µM
- effect on viability of cells [19]: no effect
- IC50 [16]: > 40 µM
- IC50 [1]: 9 ± 1.2 µM
- fold difference in IC50, HLM versus intact LS180 cells [1]: over 3.5 fold
- induction of apoptosis [20]: did not induce apoptosis
- IC50 [14]: > 40 µM
